{"source": "paper PMC11362529", "about": "“Exploring the neuroprotective potential of Nrf2-pathway activators against annonacin toxicity” (Scientific Reports, 2024)", "type_in_all_cases": "cell-based, human", "key": {"LUHMES cells [1]": {"system": "LUHMES cells", "experiment": "Protective effects against annonacin toxicity, calcein viability assay", "conditions": "with 20 nM annonacin, glucose-reduced medium, 48 h; 40 μM Ki 696–2, 1 μM HPP-D, 15 μM ezetimibe, 4 μM licochalcone A; most protective or highest non-toxic concentration for the others", "procedure": "The calcein AM green dye (Thermo Fisher Scientific) was diluted in DMSO to obtain a 1 mM stock solution. The stock solution was further diluted in HBSS (Hanks' balanced salt solution), immediately before incubation, to achieve a final working concentration of 1 μM in the well. The medium was removed, the cells were washed once with warm HBSS, and 200 µl of calcein working solution was added to each well. For background correction, 200 µl of calcein working solution was added to a well without cells (background control). After 30 min of incubation at 37 °C, the calcein solution was removed and the cells were washed once with HBSS. Cells were lysed in a 200 µl volume of 1% Triton™ X-100 in PBS (phosphate buffered saline) and the lysate transferred to a 96‐well black plate for the readout. The fluorescence signal was measured on a FLUOstar® Omega plate reader (BMG LabTech, Ortenberg, Germany) at λ Ex/Em = 485/530 nm and data was analyzed with the MARS data analysis software (BMG LabTech). For background correction, we subtracted the background control signal from the measured values of all experimental conditions. Data were expressed as percentage of viability relative to the control (DMSO-treated) condition.\nFor pharmacological treatments, we acquired several previously described Nrf2-pathway activators: ezetimibe (Cayman), licochalcone A (MedChem Express, New Jersey, NJ, USA), bardoxolone methyl, saracatinib and PP2 (AbMole BioScience Inc., Houston, TX, USA). The enantiomers Ki 696–1 and Ki 696–2, and the compound HPP-D were kindly provided by Orion Pharma (Espoo, Finland). All compounds were dissolved in DMSO and stored in small aliquots at -80 °C to avoid freeze–thaw cycles. Compound general toxicity was determined on PLO/FN double-coated 48-well microplates as follows: after 4 days of differentiation, LUHMES cells were incubated with the different Nrf2-pathway activators at concentrations ranging from 1 nM to 100 µM, for 96 h. The cell viability was assessed by calcein assay on day 8 of differentiation. Non-toxic concentrations of the Nrf2-pathway activators were selected and used in the pharmacological treatments, in combination with 20 nM of annonacin, in glucose-reduced differentiation medium, over a period of 48 h, similar to an in vitro model reported before. The protective effects of Nrf2-pathway activators against annonacin toxicity were determined in terms of cell viability with the calcein assay."}, "LUHMES cells [2]": {"system": "LUHMES cells", "experiment": "Mitochondrial superoxide (MitoSOX / calcein AM)", "conditions": "100 µM H2O2, 2 h, positive control", "procedure": "As before, cells seeded on PLO/FN-coated 24-well microplates were treated for 48 h with 20 nM of annonacin and the selected concentrations of Nrf2-pathway activators, in glucose-reduced medium. After this period, the medium was removed, and the cells were washed once with warm HBSS before being simultaneously incubated with 0.5 µM of MitoSOX™ red (Thermo Fisher Scientific) and 1 µM of calcein AM for 30 min at 37 °C. Next, the cells were again washed with HBSS and fresh HBSS was added to maintain cell viability during live-image acquisition on a fluorescence microscope Leica-DFC9000GTC (Leica). The cells were kept under controlled environmental conditions, and similar image acquisition parameters were used for all images, as explained before. We acquired ten to fifteen images per condition, from different view fields across triplicates, with a 200 × magnification (20 × objective, 10 × intermediate magnification). Quantification of MitoSOX and calcein AM FI was performed using the ImageJ software. Briefly, TIFF exported images were submitted to background subtraction using the rolling ball method with a radius of 50 pixels. Channel-specific thresholds were applied to all images to define the ROI, and the FI were measured as integrated density and reported as arbitrary units (a. u.). The MitoSOX FI was normalized to cell viability estimated by calcein AM FI, to obtain a MitoSOX FI/calcein FI ratio. The average ratio of the different view fields per experimental condition was taken and reported as fold change relative to the control (DMSO-treated) condition."}, "LUHMES cells [3]": {"system": "LUHMES cells", "experiment": "Mitochondrial membrane potential (JC-1 probe)", "conditions": "CCCP 50 µM, positive control", "procedure": "In PLO/FN-coated 24-well microplates, cells were simultaneously incubated with 20 nM of annonacin and the selected concentrations of Nrf2-pathway activators, in glucose-reduced medium, over the course of 24 h. After that, the medium was removed and cells were washed once with warm HBSS, followed by incubation with 5 µM JC-1 solution in HBSS, for 20 min at 37 °C. For the positive control, the mitochondrial oxidative phosphorylation uncoupler, CCCP, was used at a concentration of 50 µM. After the incubation period, cells were washed with HBSS, and fresh HBSS was added to keep the cells viable during live-image acquisition. Image acquisition was done on a fluorescence microscope Leica-DFC9000GTC (Leica, Frankfurt, Germany). Environmental conditions were kept steady at 37 °C with a 5% CO2 atmosphere during the entire acquisition time. Ten to fifteen images from different fields of view, dispersed across triplicates, were acquired with 200 × magnification (20 × objective, 10 × intermediate magnification), using the same image acquisition parameters for all conditions. The fluorescence of JC-1 monomers was captured on the green channel (λ Ex/Em = 475/519 nm) and the fluorescence of JC-1 aggregates was capture on the red channel (λ Ex/Em = 555/594 nm). Quantification of FI (fluorescence intensities) of JC-1 monomeric and aggregated forms was done using the ImageJ software (http://rsb.info.nih.gov/ij/, ImageJ bundled with 64-bit Java 8). Briefly, TIFF exported images were submitted to background subtraction using the rolling ball method with a radius of 50 pixels. Channel-specific thresholds were applied to all images to define the ROI (region of interest) and FI were measured as integrated density. Data were reported as the ratio between JC-1 aggregates and monomers, obtained by dividing the FI of the JC-1 aggregated form by the FI of the monomeric form."}, "LUHMES cells [4]": {"system": "LUHMES cells", "experiment": "Compound general toxicity, calcein viability assay", "conditions": "1 nM to 100 μM, 96 h, differentiation medium, calcein fluorescence", "procedure": "We used LUHMES (lund human mesencephalic) cells derived from human embryonic ventral mesencephalic cells by conditional immortalization (Tet-off v-myc overexpression). Cells were grown in monolayer at 37 °C in a humidified atmosphere of 5% CO2, in 75 cm^2 tissue culture flasks coated with 0.05 µg/ml PLO (poly-L-ornithine). Cells were maintained in growth medium of DMEM/F12 (Sigma-Aldrich, St. Louis, MO, USA), supplemented with 1% N-2 supplement (Gibco, Thermo Fisher Scientific, Waltham, MA, USA) and 0.04 µg/ml basic fibroblast growth factor (PreproTech EC, Waltham, MA, USA), and routinely dissociated with trypsin–EDTA solution and subcultured when reaching 70% confluence to avoid overgrowth. […]\nThe calcein AM green dye (Thermo Fisher Scientific) was diluted in DMSO to obtain a 1 mM stock solution. […] Cells were lysed in a 200 µl volume of 1% Triton™ X-100 in PBS (phosphate buffered saline) and the lysate transferred to a 96‐well black plate for the readout. The fluorescence signal was measured on a FLUOstar® Omega plate reader (BMG LabTech, Ortenberg, Germany) at λ Ex/Em = 485/530 nm and data was analyzed with the MARS data analysis software (BMG LabTech). For background correction, we subtracted the background control signal from the measured values of all experimental conditions. Data were expressed as percentage of viability relative to the control (DMSO-treated) condition. […]"}}}
{"smiles": "CC(C)(C)n1nc(-c2ccc(Cl)cc2)c2c(N)ncnc21", "note": "[PP2]", "values": [{"measurement": "reduction of annonacin toxicity", "setting": "LUHMES cells [1]", "result": "no statistical differences"}]}
{"smiles": "OO", "note": "[H2O2]", "values": [{"measurement": "MitoSOX fluorescence intensity", "setting": "LUHMES cells [2]", "result": "increased the MitoSOX fluorescence intensity"}]}
{"smiles": "N#CC(C#N)=NNc1cccc(Cl)c1", "note": "[CCCP]", "values": [{"measurement": "mitochondrial membrane potential (JC-1 aggregates)", "setting": "LUHMES cells [3]", "result": "drastically reduced the presence of JC-1 aggregates"}]}
{"smiles": "COC(=O)[C@]12CCC(C)(C)C[C@H]1[C@H]1C(=O)C=C3[C@@]4(C)C=C(C#N)C(=O)C(C)(C)[C@@H]4CC[C@@]3(C)[C@]1(C)CC2", "note": "[bardoxolone, bardoxolone methyl]", "values": [{"measurement": "impact on viability of differentiated LUHMES neuronal cells (compound toxicity)", "setting": "LUHMES cells [4]", "result": "extremely neurotoxic at concentrations above the nanomolar range"}]}
{"smiles": "CN1CCN(CCOc2cc(OC3CCOCC3)c3c(Nc4c(Cl)ccc5c4OCO5)ncnc3c2)CC1", "note": "[saracatinib]", "values": [{"measurement": "reduction of annonacin toxicity", "setting": "LUHMES cells [1]", "result": "no statistical differences"}]}
